Results from patent US7964647B2 (Mutual Pharmaceutical Company, Inc., priority 2007, dated 2011).
Like-named read-outs stand apart in the source and are kept apart here.

What was measured:
clinical [1] = details: human, plasma, oral, 1.8 mg, N = 13; for Cmax: low-dose regimen 1.8 mg (2 x 0.6 mg, then 0.6 mg 1 hour later), fasting healthy adults; for Tmax / half-life: low-dose regimen 1.8 mg, healthy adults; for Tmax: time after the initial dose
Experimental: This study was a single-center, single-period, open-label pharmacokinetic study conducted in healthy subjects under fasting conditions.
Subjects received 2×0.6 mg tablets initially followed by 1×0.6 mg tablet 1 hour later.

[2] = Pharmacokinetic study of standard-dose acute gout regimen 4.8 mg over 6 hours (Example 6); details: for Cmax / Tmax / half-life: human, in vivo, 4.8 mg
Experimental: This study was a single center, randomized, double-blind, double-dummy pharmacokinetic and exploratory ECG safety study.
Those randomized to moxifloxacin received 1×400 mg tablet.

[3] = not given; remark: listed apart in the source
clinical [4] = details: human, in vivo, 0.6 mg; for AUC: AUC0-τ, 0.6 mg b.i.d. x 10 days, after last dose (Day 25), healthy adults, N = 13
Experimental: Subjects received a light breakfast served 60 minutes following dose administration in the morning and the evening dose was administered 90 minutes after an evening meal on Days 15 through 24 only. […] Study periods were separated by a 14-day washout. Following the single dose and the last dose of the multiple dose regimen (beginning on the mornings of Day 1 and Day 25, respectively), blood samples were collected (6 mL each) from each subject within 1 hour prior to dosing and after dose administration at study hours 0.5, 1, 1.5, 2, 3, 4, 6, 8, 10, 12, and 24 (while confined) and 36, 48, 72, and 96 (on an outpatient basis).

[5] = standard-dose regimen 4.8 mg over 6 hours, healthy adults, N = 15
[6] = standard-dose regimen 4.8 mg over 6 hours, time after the initial dose, healthy adults, N = 15
[7] = 0.6 mg b.i.d. x 10 days, after last dose (Day 25), healthy adults, N = 13
[8] = single oral 0.6 mg dose, healthy adults, N = 13
[9] = low-dose regimen 1.8 mg (2 x 0.6 mg, then 0.6 mg 1 hour later), fasting healthy adults, N = 13
[10] = low-dose regimen 1.8 mg, healthy adults, N = 13
[11] = low-dose regimen 1.8 mg, time after the initial dose, healthy adults, N = 13

COc1cc2c(c(OC)c1OC)-c1ccc(OC)c(=O)cc1[C@@H](NC(C)=O)CC2 [Colchicine, (−)-N-[(7S,12aS)-1,2,3,10-tetramethoxy-9-oxo-5,6,7,9-tetrahydrobenzo[a]heptalen-7-yl]-acetamide]
Cmax (clinical [1]; MEAN): 6.19 ng/mL | Cmax (clinical [1]; MEDIAN): 5.68 ng/mL | Tmax (clinical [1]; MEAN): 1.81 h | Tmax (clinical [1]; MEDIAN): 2 h | half-life (clinical [1]; t1/2, MEAN): 23.6 h | half-life (clinical [1]; t1/2, MEDIAN): 21.6 h | Cmax ([2]; MEAN, standard-dose regimen 4.8 mg over 6 hours, healthy adults, N = 15): 6.8 ng/mL | Cmax ([2]; MEDIAN, standard-dose regimen 4.8 mg over 6 hours, healthy adults, N = 15): 6.69 ng/mL | Tmax ([2]; MEAN, standard-dose regimen 4.8 mg over 6 hours, time after the initial dose, healthy adults, N = 15): ~4.5 h | Tmax ([2]; MEDIAN, standard-dose regimen 4.8 mg over 6 hours, time after the initial dose, healthy adults, N = 15): 3.12 h | half-life ([2]; t1/2, MEAN, standard-dose regimen 4.8 mg over 6 hours, healthy adults, N = 15): 31.4 h | half-life ([2]; t1/2, MEDIAN, standard-dose regimen 4.8 mg over 6 hours, healthy adults, N = 15): 32.8 h | CL/F, MAX [2, 5]: 78287.41 mL/h | CL/F, MEAN [2, 5]: 43168.87 mL/h | CL/F, MEDIAN [2, 5]: 37954.71 mL/h | CL/F, MIN [2, 5]: 31386.01 mL/h | Cmax, MAX [2, 5]: 8.60 ng/mL | Cmax, MEAN [2, 5]: 6.84 ng/mL | Cmax, MIN [2, 5]: 4.95 ng/mL | Kel, MAX [2, 5]: 0.0461 h⁻¹ | Kel, MEAN [2, 5]: 0.0242 h⁻¹ | Kel, MEDIAN [2, 5]: 0.0212 h⁻¹ | Kel, MIN [2, 5]: 0.0147 h⁻¹ | Total AUC0-t, MAX [2, 5]: 138.24 ng·h/mL | Total AUC0-t, MEAN [2, 5]: 104.95 ng·h/mL | Total AUC0-t, MEDIAN [2, 5]: 113.12 ng·h/mL | Total AUC0-t, MIN [2, 5]: 53.74 ng·h/mL | Total AUC∞, MAX [2, 5]: 152.93 ng·h/mL | Total AUC∞, MEAN [2, 5]: 118.20 ng·h/mL | Total AUC∞, MEDIAN [2, 5]: 126.47 ng·h/mL | Total AUC∞, MIN [2, 5]: 61.31 ng·h/mL | Varea/F, MAX [2, 5]: 2639.21 L | Varea/F, MEAN [2, 5]: 1876.09 L | Varea/F, MEDIAN [2, 5]: 1902.14 L | Varea/F, MIN [2, 5]: 805.92 L | t1/2, MAX [2, 5]: 47.22 h | t1/2, MIN [2, 5]: 15.03 h | Tmax, MAX [2, 6]: 7.50 h | Tmax, MEAN [2, 6]: 4.47 h | Subjects with a secondary peak within 6 hours ([2]; standard-dose regimen 4.8 mg, 13 of 15 subjects): 87% | AUC0-inf, MAX [7]: 67.94465 ng·h/mL | AUC0-inf, MEAN [7]: 54.19877 ng·h/mL | AUC0-inf, MEDIAN [7]: 54.11343 ng·h/mL | AUC0-inf, MIN [7]: 37.59976 ng·h/mL | AUC0-t, MAX [7]: 58.26535 ng·h/mL | AUC0-t, MEAN [7]: 43.57696 ng·h/mL | AUC0-t, MEDIAN [7]: 41.9251 ng·h/mL | AUC0-t, MIN [7]: 29.32878 ng·h/mL | AUC0-τ, MAX [7]: 36.08395 ng·h/mL | AUC0-τ, MIN [7]: 20.79198 ng·h/mL | Cave, MAX [7]: 1.5035 ng/mL | Cave, MEAN [7]: 1.21068 ng/mL | Cave, MEDIAN [7]: 1.18551 ng/mL | Cave, MIN [7]: 0.86633 ng/mL | Cmax, MAX [7]: 4.957 ng/mL | Cmax, MEAN [7]: 3.55315 ng/mL | Cmax, MEDIAN [7]: 3.734 ng/mL | Cmax, MIN [7]: 1.977 ng/mL | Cmin, MAX [7]: 1.14967 ng/mL | Cmin, MEDIAN [7]: 0.9035 ng/mL | Cmin, MIN [7]: 0.63623 ng/mL | Kel, MAX [7]: 0.03 h⁻¹ | Kel, MEAN [7]: 0.03 h⁻¹ | Kel, MEDIAN [7]: 0.03 h⁻¹ | Kel, MIN [7]: 0.02 h⁻¹ | T1/2, MAX [7]: 33.65 h | T1/2, MEDIAN [7]: 26.51 h | T1/2, MIN [7]: 20.82 h | Tmax, MAX [7]: 3.00 h | Tmax, MEAN [7]: 1.31 h | Tmax, MIN [7]: 0.50 h | AUC0-inf, MAX [8]: 23.83848 ng·h/mL | AUC0-inf, MIN [8]: 7.25266 ng·h/mL | AUC0-t, MAX [8]: 18.12865 ng·h/mL | AUC0-t, MIN [8]: 4.81288 ng·h/mL | Cmax, MAX [8]: 3.977 ng/mL | Cmax, MIN [8]: 1.584 ng/mL | Kel, MAX [8]: 0.2443 h⁻¹ | Kel, MEAN [8]: 0.1829 h⁻¹ | Kel, MEDIAN [8]: 0.1992 h⁻¹ | Kel, MIN [8]: 0.0359 h⁻¹ | T1/2, MAX [8]: 19.29 h | T1/2, MIN [8]: 2.84 h | Tmax, MAX [8]: 3.00 h | Cmin prior to the morning dose higher than Cmin prior to the evening dose (steady state, Day 23 and Day 24): approximately 12% | Cmax, MAX [3, 9]: 11.37 ng/mL | Cmax, MIN [3, 9]: 3.16 ng/mL | Maximum colchicine concentration ([3]; low-dose regimen 1.8 mg, healthy adults): 6.2 ng/mL | CL/F, MAX [3, 10]: 52676.24 mL/h | CL/F, MEAN [3, 10]: 36950.93 mL/h | CL/F, MEDIAN [3, 10]: 35444.40 mL/h | CL/F, MIN [3, 10]: 24295.73 mL/h | Kel, MAX [3, 10]: 0.0502 h⁻¹ | Kel, MEAN [3, 10]: 0.0326 h⁻¹ | Kel, MEDIAN [3, 10]: 0.0322 h⁻¹ | Kel, MIN [3, 10]: 0.0141 h⁻¹ | Total AUC0-t, MAX [3, 10]: 58.93199 ng·h/mL | Total AUC0-t, MEAN [3, 10]: 43.78755 ng·h/mL | Total AUC0-t, MEDIAN [3, 10]: 43.94215 ng·h/mL | Total AUC0-t, MIN [3, 10]: 28.82145 ng·h/mL | Total AUC∞, MAX [3, 10]: 74.08708 ng·h/mL | Total AUC∞, MEAN [3, 10]: 52.07006 ng·h/mL | Total AUC∞, MEDIAN [3, 10]: 50.78377 ng·h/mL | Total AUC∞, MIN [3, 10]: 34.171 ng·h/mL | Varea/F, MAX [3, 10]: 1724.36 L | Varea/F, MEAN [3, 10]: 1188.72 L | Varea/F, MEDIAN [3, 10]: 1149.35 L | Varea/F, MIN [3, 10]: 774.19 L | t1/2, MAX [3, 10]: 49.20 h | t1/2, MEAN [3, 10]: 23.63 h | t1/2, MIN [3, 10]: 13.80 h | Tmax, MAX [3, 11]: 2.50 h | Tmax, MIN [3, 11]: 1.00 h | Subjects with a secondary peak within 6 hours after the first dose ([3]; low-dose regimen 1.8 mg, 10 of 13 subjects): 77% | Tmax (clinical [4]): 1 h | AUC (clinical [4]; MEAN): 29.1 ng·h/mL | AUC (clinical [4]; MEDIAN): 28.5 ng·h/mL | Cmax (clinical [4]; po): 2.71 ng/mL | half-life (clinical [4]; po): ~5 h
